Patent US20220265629A1, “TREATMENT OF SYSTOLIC DYSFUNCTION AND HEART FAILURE WITH REDUCED EJECTION FRACTION WITH THE COMPOUND (R)-4-(1-((3-(DIFLUOROMETHYL)-1-METHYL-1H-PYRAZOL-4-YL)SULFONYL)-1-FLUOROETHYL)-N-(ISOXAZOL-3-YL)PIPERIDINE-1-CARBOXAMIDE” (MyoKardia, Inc., priority 2019, published 2022)

System: patients with stable HFrEF
Test: HFrEF study Part 2 (MAD Cohorts A-D): safety (TEAEs, serum troponin, ECG, Holter)
Type: in vivo, human
Protocol: Safety and efficacy assessments were conducted by measuring patients' vital signs and laboratory parameters; performing TTE to measure, e.g., systolic ejection time; performing electrocardiograms (e.g., 12-lead ECG), real-time ECG telemetry (e.g., at least 3-lead), and Holter ECG; and measuring levels of troponin (e.g., troponin I and/or troponin T) and […].
The following safety laboratory parameters were measured: (1) hematology parameters (CBC, including differential count, and platelet count); (2) serum chemistry parameters (e.g., sodium, potassium, chloride, bicarbonate, calcium, magnesium, urea, creatinine, ALP, ALT, AST, total bilirubin, glucose, and CPK); and (3) urinalysis parameters (e.g., pH, protein, glucose, leukocyte esterase, and blood).
Abnormal and/or rising troponin values (as per investigator's judgment and taking into account potential baseline troponin elevation frequently observed in heart failure) led to the patient being clinically evaluated for possible myocardial ischemia. […] The entire clinical context (e.g., signs, symptoms, new ECG changes, new troponin, and CK-MB abnormalities) was evaluated and correlated with any other relevant clinical findings, patient's medical history, and laboratory data to determine the clinical significance of the findings. Troponin results performed on Day 2 of Part 1 (SAD) and Day 10 of Part 2 (MAD) at a local lab were reviewed prior to the patient being discharged the next day.

[1] = Cohort A + C 75 mg BID (n = 15)
[2] = serum, MAD cohorts, Total Compound I (n = 22), ULN = 0.014
[3] = serum, MAD cohorts, Total Compound I (n = 30), ULN = 0.03

Cn1cc(S(=O)(=O)[C@@](C)(F)C2CCN(C(=O)Nc3ccon3)CC2)c(C(F)F)n1 [Compound I, (R)-4-(1-((3-(difluoromethyl)-1-methyl-1H-pyrazol-4-yl)sulfonyl)-1-fluoroethyl)-N-(isoxazol-3-yl)piperidine-1-carboxamide]
4 (66.7) n (%): Any TEAE, number of patients (%) (Cohort D 100 mg BID (n = 6))
2 (13.3) n (%): TEAE: Fatigue [1]
safe and generally well-tolerated: safety and tolerability (single dose up to 550 mg and 50 to 100 mg BID for 7 days, HFrEF subjects)
6 (40.0) n (%): Any TEAE, number of patients (%) [1]
2 (6.7) n (%): TEAE: Alanine aminotransferase increased (Total Compound I (n = 30)) | TEAE: Dermatitis contact (Total Compound I (n = 30)) | TEAE: Fatigue (Total Compound I (n = 30)) | TEAE: Troponin increased (Total Compound I (n = 30)) | TEAE: Ventricular tachycardia (Total Compound I (n = 30))
0.020 ng/mL: hs-troponin T, median peak troponin post dose [2]
(0.052) ng/mL: hs-troponin T, max peak troponin post dose [2]
3/6: patients with troponin increase (100 mg)
2/9: patients with troponin increase (50 mg)
0 n (%): Any AE leading to death, number of patients (%) [1] | Any TEAE leading to permanent treatment discontinuation, number of patients (%) [1] | TEAE: Abdominal discomfort [1] | TEAE: Application site erosion [1] | TEAE: Arthralgia [1] | TEAE: Arthropod bite [1] | TEAE: Back pain [1] | TEAE: Blood creatine phosphokinase increased [1] | TEAE: Blood creatinine increased [1] | TEAE: Dermatitis contact [1] | TEAE: Dry eye [1] | TEAE: Fluid overload [1] | TEAE: Gingival pain [1] | TEAE: Hyperkalemia [1] | TEAE: Infusion site erythema [1] | TEAE: Nasopharyngitis [1] | TEAE: Rash [1] | TEAE: Renal failure [1] | TEAE: Renal impairment [1] | TEAE: Testicular pain [1] | TEAE: Ventricular tachycardia [1] | Any AE leading to death, number of patients (%) (Cohort B 50 mg BID (n = 9)) | Any TEAE leading to permanent treatment discontinuation, number of patients (%) (Cohort B 50 mg BID (n = 9)) | Any serious TEAE, number of patients (%) (Cohort B 50 mg BID (n = 9)) | TEAE: Anemia (Cohort B 50 mg BID (n = 9)) | TEAE: Arthralgia (Cohort B 50 mg BID (n = 9)) | TEAE: Arthropod bite (Cohort B 50 mg BID (n = 9)) | TEAE: Back pain (Cohort B 50 mg BID (n = 9)) | TEAE: Blood creatinine increased (Cohort B 50 mg BID (n = 9)) | TEAE: Cough (Cohort B 50 mg BID (n = 9)) | TEAE: Dry eye (Cohort B 50 mg BID (n = 9)) | TEAE: Fatigue (Cohort B 50 mg BID (n = 9)) | TEAE: Gingival pain (Cohort B 50 mg BID (n = 9)) | TEAE: Nasopharyngitis (Cohort B 50 mg BID (n = 9)) | TEAE: Renal failure (Cohort B 50 mg BID (n = 9)) | TEAE: Renal impairment (Cohort B 50 mg BID (n = 9)) | TEAE: Testicular pain (Cohort B 50 mg BID (n = 9)) | TEAE: Troponin increased (Cohort B 50 mg BID (n = 9)) | Any AE leading to death, number of patients (%) (Cohort D 100 mg BID (n = 6)) | Any TEAE leading to permanent treatment discontinuation, number of patients (%) (Cohort D 100 mg BID (n = 6)) | Any serious TEAE, number of patients (%) (Cohort D 100 mg BID (n = 6)) | TEAE: Abdominal discomfort (Cohort D 100 mg BID (n = 6)) | TEAE: Alanine aminotransferase increased (Cohort D 100 mg BID (n = 6)) | TEAE: Anemia (Cohort D 100 mg BID (n = 6)) | TEAE: Application site erosion (Cohort D 100 mg BID (n = 6)) | TEAE: Arthralgia (Cohort D 100 mg BID (n = 6)) | TEAE: Back pain (Cohort D 100 mg BID (n = 6)) | TEAE: Blood creatine phosphokinase increased (Cohort D 100 mg BID (n = 6)) | TEAE: Cough (Cohort D 100 mg BID (n = 6)) | TEAE: Dermatitis contact (Cohort D 100 mg BID (n = 6)) | TEAE: Dry eye (Cohort D 100 mg BID (n = 6)) | TEAE: Fatigue (Cohort D 100 mg BID (n = 6)) | TEAE: Fluid overload (Cohort D 100 mg BID (n = 6)) | TEAE: Hyperkalemia (Cohort D 100 mg BID (n = 6)) | TEAE: Infusion site erythema (Cohort D 100 mg BID (n = 6)) | TEAE: Nasopharyngitis (Cohort D 100 mg BID (n = 6)) | TEAE: Rash (Cohort D 100 mg BID (n = 6)) | TEAE: Renal failure (Cohort D 100 mg BID (n = 6)) | TEAE: Renal impairment (Cohort D 100 mg BID (n = 6)) | TEAE: Testicular pain (Cohort D 100 mg BID (n = 6)) | Any AE leading to death, number of patients (%) (Total Compound I (n = 30)) | Any TEAE leading to permanent treatment discontinuation, number of patients (%) (Total Compound I (n = 30)) | TEAE: Arthralgia (Total Compound I (n = 30)) | TEAE: Back pain (Total Compound I (n = 30)) | TEAE: Dry eye (Total Compound I (n = 30)) | TEAE: Nasopharyngitis (Total Compound I (n = 30)) | TEAE: Renal failure (Total Compound I (n = 30)) | TEAE: Renal impairment (Total Compound I (n = 30)) | TEAE: Testicular pain (Total Compound I (n = 30))
1 (16.7) n (%): TEAE: Arthropod bite (Cohort D 100 mg BID (n = 6)) | TEAE: Blood creatinine increased (Cohort D 100 mg BID (n = 6)) | TEAE: Gingival pain (Cohort D 100 mg BID (n = 6)) | TEAE: Troponin increased (Cohort D 100 mg BID (n = 6)) | TEAE: Ventricular tachycardia (Cohort D 100 mg BID (n = 6))
2 (22.2) n (%): TEAE: Dermatitis contact (Cohort B 50 mg BID (n = 9))
7 (23%): patients with transient asymptomatic increase in troponin I or hs-troponin T (MAD cohorts, all doses)
1 (3.3) n (%): Any serious TEAE, number of patients (%) (Total Compound I (n = 30)) | TEAE: Abdominal discomfort (Total Compound I (n = 30)) | TEAE: Anemia (Total Compound I (n = 30)) | TEAE: Application site erosion (Total Compound I (n = 30)) | TEAE: Arthropod bite (Total Compound I (n = 30)) | TEAE: Blood creatine phosphokinase increased (Total Compound I (n = 30)) | TEAE: Blood creatinine increased (Total Compound I (n = 30)) | TEAE: Cough (Total Compound I (n = 30)) | TEAE: Fluid overload (Total Compound I (n = 30)) | TEAE: Gingival pain (Total Compound I (n = 30)) | TEAE: Hyperkalemia (Total Compound I (n = 30)) | TEAE: Infusion site erythema (Total Compound I (n = 30)) | TEAE: Rash (Total Compound I (n = 30))
17 (57%): patients with treatment-emergent adverse events (TEAEs) (MAD cohorts, 50-100 mg BID)
2/15: patients with troponin increase (75 mg)
(0.88) ng/mL: Troponin I, max peak troponin post dose [3]
17 (56.7) n (%): Any TEAE, number of patients (%) (Total Compound I (n = 30))
(0.041) ng/mL: hs-troponin T, max change from baseline [2]
1 (11.1) n (%): TEAE: Abdominal discomfort (Cohort B 50 mg BID (n = 9)) | TEAE: Alanine aminotransferase increased (Cohort B 50 mg BID (n = 9)) | TEAE: Application site erosion (Cohort B 50 mg BID (n = 9)) | TEAE: Blood creatine phosphokinase increased (Cohort B 50 mg BID (n = 9)) | TEAE: Fluid overload (Cohort B 50 mg BID (n = 9)) | TEAE: Hyperkalemia (Cohort B 50 mg BID (n = 9)) | TEAE: Infusion site erythema (Cohort B 50 mg BID (n = 9)) | TEAE: Rash (Cohort B 50 mg BID (n = 9)) | TEAE: Ventricular tachycardia (Cohort B 50 mg BID (n = 9))
7 (77.8) n (%): Any TEAE, number of patients (%) (Cohort B 50 mg BID (n = 9))
1 (6.7) n (%): Any serious TEAE, number of patients (%) [1] | TEAE: Alanine aminotransferase increased [1] | TEAE: Anemia [1] | TEAE: Cough [1] | TEAE: Troponin increased [1]
No increase: QTc (MAD cohorts)
(0.87) ng/mL: Troponin I, max change from baseline [3]
0.010 ng/mL: Troponin I, median change from baseline [3]
0.025 ng/mL: Troponin I, median peak troponin post dose [3]
0.005 ng/mL: hs-troponin T, median change from baseline [2]
